US20230390283A1, “USES OF CHK2 INHIBITORS” (The University of Birmingham, priority 2020, published 2023)
“Also recorded” adds a separate entry of the source.

Experiments:
[1] = test system: primary adult rat dorsal root ganglion neuron (DRGN) cultures; assay: DRGN survival and neurite outgrowth in culture; type: cell-based; conditions: for optimal concentration that promoted DRGN/RGC survival and neurite outgrowth: preliminary experiments, DRGN/RGC cultures
Description: (§1) Rat DRGN and retinal cultures. […] Cells were cultured for 4 days in a humidified chamber at 37° C. and 5% CO2 before being subjected to quantitative RT-PCR or immunocytochemistry, as described below.
Immunocytochemistry. […] Slides were then viewed with an epi-fluorescent Axioplan 2 microscope, equipped with an AxioCam HRc and running Axiovision Software (all from Carl Zeiss, Hertfordshire, UK).

[2] = test system: T8 dorsal column (DC) crush model of spinal cord injury; assay: DC crush injury model: horizontal ladder test (locomotor function); type: in vivo, rat; conditions: followed over 6 weeks
Description: (§2) DC crush injury model. Rats were injected subcutaneously with 0.05 ml Buprenorphine to provide analgesia prior to surgery and anaesthetised using 5% of Isoflurane in 1.8 ml/l of O2 with body temperature and heart rate monitored throughout surgery.
(§3) Chk2 inhibition studies in the DC crush injury model. […] Chk1i (LY2603618) was used at equimolar concentrations for each experiment. Rats were killed in a rising concentration of CO2 at either 28 d for immunohistochemistry and western blot analyses or 6 weeks for electrophysiology and functional tests.
(§4) Functional tests. […] Experiments were performed by 2 observers (treatment conditions were masked) in the same order, the same time of day and each test performed for 3 individual trials.
Horizontal ladder test: This tests the animals locomotor function and is performed on a 0.9-meter-long horizontal ladder with a diameter of 15.5 cm and randomly adjusted rungs with variable gaps of 3.5-5.0 cm. The total number of steps taken to cross the ladder and the left and right rear paw slips being were recorded and the mean error rate was then calculated by dividing the number of slips by the total number of steps taken.

RGC [3] = assay: Glaucoma model: RGC survival in retinal wholemounts; type: in vivo, rat; conditions: 30 days after induction of glaucoma
Description: Induction of glaucoma. […] At day zero, a self-sealing incision was made though the cornea into the anterior chamber enabling twice weekly intracameral injections of 3.5 μl of TGFβ2 (5 ng/μl) using glass micropipettes for 30 days. Vehicle, comprising saline, was injected in control groups. Intraocular pressure was measured using an iCare Tonolab rebound tonometer (Icare, Helsinki, Finland).
(§5) Assessment of RGC survival.

dorsal column (DC) axons = assay: DC crush injury model: GAP43+ DC axon regeneration; type: in vivo, rat
[4] = test system: retinal nerve fibre layer; assay: Optic neuritis model: RNFL thickness by OCT; type: in vivo, mice; conditions: day 21
Description: (§6) Induction of optic neuritis. […] Animals were intraperitoneally injected with 150 ng Bordetella pertussis toxin on day 0 and 2. Animals were monitored daily and assessed for the development of EAE. At the end of the experiment, animals were then killed by CO2 overdose.
Measurement of RNFL thinning using optical coherence tomography (OCT). […] Examinations were recorded in both right (oculus dextrus, OD) and left eyes (oculus sinister, OS) of each animal at day 0 and day 21 after immunisation. […] A RNFL single exam using the automatic real time (ART) mode (allows averaging of 100 recordings) was produced for each mouse eye, which automatically measured RNFL thickness (μm) in a 30° circle surrounding the optic nerve head.

RGC [5] = assay: Optic neuritis model: RGC survival (Fluorgold backfilled wholemounts); type: in vivo, mice; conditions: 21 days after induction
Description: as §6, §5

[6] = test system: T8 dorsal column (DC) crush model of spinal cord injury; assay: DC crush injury model: tape sensing and removal test (sensory function); type: in vivo, rat; conditions: followed over 6 weeks
Description: as §2, §3, §4

RGC function = conditions: 24 days after ONC
[7] = test system: T8 dorsal column (DC) crush model of spinal cord injury; assay: DC crush injury model: electrophysiology (compound action potentials); type: in vivo, rat; conditions: 6 weeks after DC injury
Description: as §2, §3
Electrophysiology. […] Briefly, with the experimenter masked to the treatment conditions, silver wire electrodes applied single-current pulses (0.05 ms) through a stimulus isolation unit in increments (0.2, 0.3, 0.6, 0.8, and 1.2 mA) at L1-L2 and compound action potentials (CAP) were recorded at C4-C5 along the surface of the midline spinal cord. Spike 2 software was then used to calculate CAP amplitudes between the negative deflection after the stimulus artifact and the next peak of the wave. CAP area was calculated by rectifying the negative CAP component (full-wave rectification) and measuring its area. At the different stimulation intensities. […] Representative CAP traces are processed output data from Spike 2 software.

pChk2^T68 and pChk2^T383 = conditions: western blot and densitometry
Description: as §1
Protein extraction and western blot analysis. […] For densitometry, western blots were scanned into Adobe Photoshop (Adobe Systems Inc, San Jose, Calif., USA) and analysed using the built-in-macros for gel analysis in ImageJ (NIH, USA, http://imagej.nih.clov/ij).

NC(=O)c1ccc2[nH]c(-c3ccc(Oc4ccc(Cl)cc4)cc3)nc2c1 [BML-277]
optimal concentration that promoted DRGN/RGC survival and neurite outgrowth [1]: 5 µM

COc1cc2nc(-c3cc(F)ccc3O)nc(N[C@@H]3CNC[C@H]3C(C)(C)O)c2cc1OC [CCT241533]
optimal concentration that promoted DRGN/RGC survival and neurite outgrowth [1]: 10 µM

Cc1cnc(NC(=O)Nc2cc(Br)c(C)cc2OC[C@@H]2CNCCO2)cn1 [LY2603618]
ladder crossing test performance ([2]; listed as Chk1 i): a deficit remaining | ladder crossing test performance ([2]; listed as Chk1i): a significant deficit remains; also recorded: a deficit remaining | RGC survival in glaucoma (RGC [3]): no effect | DC axon regeneration beyond the lesion site (dorsal column (DC) axons; listed as Chk1 i): few GAP43^+ axons | DC axon regeneration beyond the lesion site (dorsal column (DC) axons; listed as Chk1i): no axon regeneration beyond the lesion site | RNFL thickness in optic neuritis [4]: no effect | RGC survival in optic neuritis (RGC [5]): no effect | tape sensing/removal test performance ([6]; listed as Chk1 i): a significant deficit remained | tape sensing/removal test performance ([6]; listed as Chk1i): a significant deficit remained | effect on DRGN/RGC survival ([1]; 1-50 μM): no effect | effect on DRGN survival, % DRGN with neurites and neurite length ([1]; 4 days culture): no effect | ERG traces and pSTR amplitude (RGC function): no effect | CAP area at different stimulation intensities [7]: significantly attenuated | negative CAP amplitudes ([7]; different stimulation intensities): significantly attenuated

COc1cccc(OCCCN)c1-c1cc(Nc2cnc(C#N)cn2)n[nH]1 [Prexasertib]
optimal concentration that promoted DRGN/RGC survival and neurite outgrowth [1]: 10 µM

CCT241533
Chk2 phosphorylation (pChk2^T68, pChk2^T383) in DRGN cultures (pChk2^T68 and pChk2^T383): suppresses

FGF2: positive control for DRGN cultures, pre-optimised 10 ng/ml
% DRGN with neurites ([1]; 4 days culture): 42% | mean neurite length ([1]; 4 days culture, controls 12 μm): 180 μm
